Source: ChEMBL document CHEMBL3739426, “Synthesis and biological evaluation of novel 2-isoxazoline fused cyclopentane derivatives as potential antimicrobial and anticancer agents” (Medchemcomm, 2015)
Values after ≈ are worked out from the molar mass of the structure shown.

Tests used:
HeLa = assay: Cytotoxicity against human HeLa cells after 48 hrs by MTT assay; assay type: functional, cell-based
Escherichia coli = assay: Antimicrobial activity against Escherichia coli by cup plate diffusion method; assay type: functional
Candida albicans = assay: Antimicrobial activity against Candida albicans by cup plate diffusion method; assay type: functional
A549 = assay: Cytotoxicity against human A549 cells after 48 hrs by MTT assay; assay type: functional, cell-based; conditions: A549, 48 h
HT-29 = assay: Cytotoxicity against human HT-29 cells after 48 hrs by MTT assay; assay type: functional, cell-based; conditions: HT-29, 48 h
Priestia megaterium = assay: Antimicrobial activity against Bacillus megaterium by cup plate diffusion method; assay type: functional
MCF7 = assay: Cytotoxicity against human MCF7 cells after 48 hrs by MTT assay; assay type: functional, cell-based; conditions: MCF7, 48 h
Pseudomonas sp. = assay: Antimicrobial activity against Pseudomonas sp. by cup plate diffusion method; assay type: functional
[1] = Cytotoxicity against human PC3 cells after 48 hrs by MTT assay; assay type: functional, cell-based; conditions: PC-3, 48 h
Bacillus subtilis = assay: Antimicrobial activity against Bacillus subtilis by cup plate diffusion method; assay type: functional

Compound | IC50 (HeLa) [µg/mL] | MIC (Escherichia coli) [µg/mL] | MIC (Candida albicans) [µg/mL] | IC50 (A549) [µg/mL] | IC50 (HT-29) [µg/mL] | MIC (Priestia megaterium) [µg/mL] | IC50 (MCF7) [µg/mL] | MIC (Pseudomonas sp.) [µg/mL] | IC50 [1] [µg/mL] | MIC (Bacillus subtilis) [µg/mL]
COC(=O)[C@H]1C[C@@H](C(=O)OC)[C@H]2ON=C(c3ccccc3Cl)[C@H]21 | > 50 | > 100 | > 100 | > 50 | > 50 | > 100 | > 50 | > 100 | > 50 | > 100
N#Cc1ccc(C2=NO[C@H]3[C@@H]2[C@@H](C(=O)O)C[C@H]3C(=O)O)cc1 | 33.3 (≈ 111 µM) | > 100 | > 100 | > 50 | 30.3 (≈ 101 µM) | > 100 | > 50 | > 100 | > 50 | > 100
Cc1ccc(C2=NO[C@H]3[C@@H]2[C@@H](C(=O)O)C[C@H]3C(=O)O)cc1 | > 50 | > 100 | > 100 | > 50 | > 50 | > 100 | > 50 | > 100 | > 50 | > 100
COC(=O)[C@H]1C[C@@H](C(=O)OC)[C@H]2ON=C(c3ccc(OC)c(OC)c3)[C@H]21 | > 50 | > 100 | > 100 | > 50 | > 50 | > 100 | > 50 | > 100 | > 50 | > 100
O=C(O)[C@H]1C[C@@H](C(=O)O)[C@H]2ON=C(c3ccc4ccccc4c3)[C@H]21 | > 50 | > 100 | > 100 | > 50 | 29.7 (≈ 91.3 µM) | > 100 | 31.8 (≈ 97.7 µM) | > 100 | > 50 | > 100
C[C@@H]1[C@H](O)[C@@H](C)/C=C/C=C/C=C/C=C/C=C/C=C/C=C/[C@H](O[C@@H]2O[C@H](C)[C@@H](O)[C@H](N)[C@@H]2O)C[C@@H]2O[C@](O)(C[C@@H](O)C[C@@H](O)[C@H](O)CC[C@@H](O)C[C@@H](O)CC(=O)O[C@H]1C)C[C@H](O)[C@H]2C(=O)O [AMPHOTERICIN B] | – | – | 5 (≈ 5.41 µM) | – | – | – | – | – | – | –
COC(=O)[C@H]1C[C@@H](C(=O)OC)[C@H]2ON=C(c3ccc(C)cc3)[C@H]21 | > 50 | > 100 | > 100 | > 50 | > 50 | > 100 | > 50 | > 100 | > 50 | > 100
COC(=O)[C@H]1C[C@@H](C(=O)OC)[C@H]2ON=C(c3ccc(Br)cc3)[C@H]21 | 27.4 (≈ 71.7 µM) | > 100 | > 100 | > 50 | > 50 | > 100 | > 50 | > 100 | > 50 | > 100
OC[C@@H]1C[C@H](CO)[C@@H]2C(c3ccc(F)cc3)=NO[C@H]12 | > 50 | > 100 | > 100 | 31.1 (≈ 117 µM) | 17.8 (≈ 67.1 µM) | > 100 | > 50 | > 100 | > 50 | > 100
OC[C@@H]1C[C@H](CO)[C@@H]2C(c3ccc(Cl)cc3)=NO[C@H]12 | > 50 | > 100 | > 100 | > 50 | 22.9 (≈ 81.3 µM) | > 100 | 14.7 (≈ 52.2 µM) | > 100 | > 50 | > 100
OC[C@@H]1C[C@H](CO)[C@@H]2C(c3ccccc3Cl)=NO[C@H]12 | > 50 | > 100 | > 100 | > 50 | 33.8 (≈ 120 µM) | > 100 | > 50 | > 100 | > 50 | 74.4 (≈ 264 µM)
COc1ccc(C2=NO[C@H]3[C@@H]2[C@@H](C(=O)O)C[C@H]3C(=O)O)cc1OC | > 50 | 88.4 (≈ 264 µM) | 81.6 (≈ 243 µM) | > 50 | 40.6 (≈ 121 µM) | > 100 | > 50 | 44.2 (≈ 132 µM) | > 50 | > 100
COC(=O)[C@H]1C[C@@H](C(=O)OC)[C@H]2ON=C(c3ccc(F)cc3)[C@H]21 | 20.1 (≈ 62.6 µM) | > 100 | > 100 | > 50 | > 50 | > 100 | 39.4 (≈ 123 µM) | > 100 | > 50 | > 100
O=C(O)[C@H]1C[C@@H](C(=O)O)[C@H]2ON=C(c3ccc(Br)cc3)[C@H]21 | 45.6 (≈ 129 µM) | 2.2 (≈ 6.21 µM) | 8.7 (≈ 24.6 µM) | > 50 | > 50 | 10.5 (≈ 29.6 µM) | > 50 | 22 (≈ 62.1 µM) | > 50 | 10.5 (≈ 29.6 µM)
GENTAMICIN | – | 2 | – | – | – | – | – | 8 | – | –
